Experimental data as given in patent US6355799B1, “Substituted benzene compounds, process for their preparation, and herbicidal and defoliant compositions containing them” (ISK Americas Incorporated, priority 1997, dated 2002).

What was measured:
Type in all cases: in vivo
[1] = tested on: redroot pigweed (Amaranthus retroflexus, AMARE); assay: Pre-emerge test, greenhouse herbicide activity screening; settings: pre-emerge, phytotoxicity rating 0-100 at 14 days after application
Outline: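 Plants grown in 10 cm pots of sandy loam mix received acetone-dissolved compounds through a moving flat-fan nozzle. Doses ranged from 15 to 1000 g ai/ha. Pre-emerge pots were seeded one day earlier, post-emerge pots 8–21 days earlier. Fourteen days on, each pot was graded 0–100 for damage.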

[2] = tested on: barnyardgrass (Echinochloa crus-galli, ECHCG); assay: as above; settings: pre-emerge, phytotoxicity rating 0-100 at 14 days after application
Outline: (§1)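 Visual ratings on a 0-100 scale (0 no damage, 100 all plants dead) were taken at 14 days after treatment. Rates of 15-1000 g ai/ha in acetone, 187 l/ha, were sprayed onto soil one day after planting (pre-emerge) or onto 2-3 leaf plants with 0.25% v/v surfactant (post-emerge).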

[3] = tested on: green foxtail (Setaria viridis, SETVI); assay: as above; settings: pre-emerge, phytotoxicity rating 0-100 at 14 days after application
Outline: as §1

[4] = tested on: ivyleaf morningglory (Ipomoea hederacea, IPOHE); assay: as above; settings: pre-emerge, phytotoxicity rating 0-100 at 14 days after application
Outline: as §1

[5] = tested on: johnsongrass (Sorghum halepense, SORHA); assay: as above; settings: pre-emerge, phytotoxicity rating 0-100 at 14 days after application
Outline: as §1

[6] = tested on: lambsquarters (Chenopodium album, CHEAL); assay: as above; settings: pre-emerge, phytotoxicity rating 0-100 at 14 days after application
Outline: as §1

[7] = tested on: large crabgrass (Digitaria sanguinalis, DIGSA); assay: as above; settings: pre-emerge, phytotoxicity rating 0-100 at 14 days after application
Outline: as §1

[8] = tested on: sicklepod (Cassia obtusifolia, CASOB); assay: as above; settings: pre-emerge, phytotoxicity rating 0-100 at 14 days after application
Outline: as §1

[9] = tested on: velvetleaf (Abutilon theophrasti, ABUTH); assay: as above; settings: pre-emerge, phytotoxicity rating 0-100 at 14 days after application
Outline: as §1

[10] = tested on: field corn (Zea mays L., var. Dekalb 535, CORN); assay: Pre-emerge test, crop safety; settings: crop damage, pre-emerge, phytotoxicity rating 0-100 at 14 days after application
Outline: (§2)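 Compounds in acetone were track-sprayed at 15-1000 g ai/ha (187 l/ha) on sandy loam pots: pre-emerge one day after seeding, post-emerge at 2-3 leaf stage with 0.25% v/v non-ionic surfactant. Phytotoxicity was rated 14 days later on a 0 (no damage) to 100 (complete death) scale.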

[11] = tested on: upland rice (Oryza sp., var. Tebonnet, RICE); assay: Pre-emerge test, crop safety; settings: crop damage, pre-emerge, phytotoxicity rating 0-100 at 14 days after application
Outline: as §2

[12] = tested on: barnyardgrass (Echinochloa crus-galli, ECHCG); assay: Post-emerge test, greenhouse herbicide activity screening; settings: post-emerge, phytotoxicity rating 0-100 at 14 days after application
Outline: (§3)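 Sandy loam pots; pre-emerge: sown 1 d pre-spray, surface-watered after, then bottom-watered. Post-emerge: sown 8–21 d before, 2–3 leaf stage, + 0.25% v/v NIS, bottom-watered. Acetone, 187 l/ha track spray, 15–1000 g ai/ha. 0–100 injury score, day 14.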

[13] = tested on: green foxtail (Setaria viridis, SETVI); assay: as above; settings: post-emerge, phytotoxicity rating 0-100 at 14 days after application
Outline: as §3

[14] = tested on: ivyleaf morningglory (Ipomoea hederacea, IPOHE); assay: as above; settings: post-emerge, phytotoxicity rating 0-100 at 14 days after application
Outline: as §3

[15] = tested on: johnsongrass (Sorghum halepense, SORHA); assay: as above; settings: post-emerge, phytotoxicity rating 0-100 at 14 days after application
Outline: as §3

[16] = tested on: lambsquarters (Chenopodium album, CHEAL); assay: as above; settings: post-emerge, phytotoxicity rating 0-100 at 14 days after application
Outline: as §3

[17] = tested on: large crabgrass (Digitaria sanguinalis, DIGSA); assay: as above; settings: post-emerge, phytotoxicity rating 0-100 at 14 days after application
Outline: as §3

[18] = tested on: redroot pigweed (Amaranthus retroflexus, AMARE); assay: as above; settings: post-emerge, phytotoxicity rating 0-100 at 14 days after application
Outline: as §3

[19] = tested on: sicklepod (Cassia obtusifolia, CASOB); assay: as above; settings: post-emerge, phytotoxicity rating 0-100 at 14 days after application
Outline: as §3

[20] = tested on: velvetleaf (Abutilon theophrasti, ABUTH); assay: as above; settings: post-emerge, phytotoxicity rating 0-100 at 14 days after application
Outline: as §3

[21] = tested on: field corn (Zea mays L., var. Dekalb 535, CORN); assay: Post-emerge test, crop safety; settings: post-emerge, crop damage rating 0-100 at 14 days after application
Outline: as §1

[22] = tested on: upland rice (Oryza sp., var. Tebonnet, RICE); assay: Post-emerge test, crop safety; settings: post-emerge, crop damage rating 0-100 at 14 days after application
Outline: as §1

Compound: Cc1c(Cl)cc(F)c(-n2c(=O)cc(C(F)(F)F)n(C)c2=O)c1NC(=O)OCc1ccc(Cl)cc1 [4-61]
- Pre-emerge Herbicidal Activity AMARE ([1]; rate 63 g ai/ha): 100
- Pre-emerge Herbicidal Activity AMARE ([1]; rate 250 g ai/ha): 100
- Pre-emerge Herbicidal Activity ECHCG ([2]; rate 63 g ai/ha): 30
- Pre-emerge Herbicidal Activity ECHCG ([2]; rate 250 g ai/ha): 50
- Pre-emerge Herbicidal Activity SETVI ([3]; rate 63 g ai/ha): 80
- Pre-emerge Herbicidal Activity SETVI ([3]; rate 250 g ai/ha): 75
- Pre-emerge Herbicidal Activity IPOHE ([4]; rate 63 g ai/ha): 30
- Pre-emerge Herbicidal Activity IPOHE ([4]; rate 250 g ai/ha): 60
- Pre-emerge Herbicidal Activity SORHA ([5]; rate 63 g ai/ha): 20
- Pre-emerge Herbicidal Activity SORHA ([5]; rate 250 g ai/ha): 50
- Pre-emerge Herbicidal Activity CHEAL ([6]; rate 63 g ai/ha): 100
- Pre-emerge Herbicidal Activity CHEAL ([6]; rate 250 g ai/ha): 100
- Pre-emerge Herbicidal Activity DIGSA ([7]; rate 63 g ai/ha): 50
- Pre-emerge Herbicidal Activity DIGSA ([7]; rate 250 g ai/ha): 90
- Pre-emerge Herbicidal Activity CASOB ([8]; rate 63 g ai/ha): 40
- Pre-emerge Herbicidal Activity CASOB ([8]; rate 250 g ai/ha): 30
- Pre-emerge Herbicidal Activity ABUTH ([9]; rate 63 g ai/ha): 60
- Pre-emerge Herbicidal Activity ABUTH ([9]; rate 250 g ai/ha): 70
- Pre-emerge Herbicidal Activity CORN ([10]; rate 63 g ai/ha): 0
- Pre-emerge Herbicidal Activity CORN ([10]; rate 250 g ai/ha): 0
- Pre-emerge Herbicidal Activity RICE ([11]; rate 63 g ai/ha): 0
- Pre-emerge Herbicidal Activity RICE ([11]; rate 250 g ai/ha): 50
- Post-emerge Herbicidal Activity ECHCG ([12]; 63 g ai/ha): 40
- Post-emerge Herbicidal Activity ECHCG ([12]; 250 g ai/ha): 60
- Post-emerge Herbicidal Activity SETVI ([13]; 63 g ai/ha): 70
- Post-emerge Herbicidal Activity SETVI ([13]; 250 g ai/ha): 80
- Post-emerge Herbicidal Activity IPOHE ([14]; 63 g ai/ha): 100
- Post-emerge Herbicidal Activity IPOHE ([14]; 250 g ai/ha): 100
- Post-emerge Herbicidal Activity SORHA ([15]; 63 g ai/ha): 50
- Post-emerge Herbicidal Activity SORHA ([15]; 250 g ai/ha): 70
- Post-emerge Herbicidal Activity CHEAL ([16]; 63 g ai/ha): 100
- Post-emerge Herbicidal Activity CHEAL ([16]; 250 g ai/ha): 100
- Post-emerge Herbicidal Activity DIGSA ([17]; 63 g ai/ha): 50
- Post-emerge Herbicidal Activity DIGSA ([17]; 250 g ai/ha): 70
- Post-emerge Herbicidal Activity AMARE ([18]; 63 g ai/ha): 100
- Post-emerge Herbicidal Activity AMARE ([18]; 250 g ai/ha): 100
- Post-emerge Herbicidal Activity CASOB ([19]; 63 g ai/ha): 100
- Post-emerge Herbicidal Activity CASOB ([19]; 250 g ai/ha): 100
- Post-emerge Herbicidal Activity ABUTH ([20]; 63 g ai/ha): 100
- Post-emerge Herbicidal Activity ABUTH ([20]; 250 g ai/ha): 100
- Post-emerge Herbicidal Activity CORN ([21]; 63 g ai/ha): 50
- Post-emerge Herbicidal Activity CORN ([21]; 250 g ai/ha): 70
- Post-emerge Herbicidal Activity RICE ([22]; 63 g ai/ha): 40
- Post-emerge Herbicidal Activity RICE ([22]; 250 g ai/ha): 80

Compound: Cc1c(Cl)cc(F)c(-n2c(=O)cc(C(F)(F)F)n(C)c2=O)c1NC(=O)OCc1ccc(Cl)cc1Cl [4-62]
- Pre-emerge Herbicidal Activity AMARE ([1]; rate 63 g ai/ha): 100
- Pre-emerge Herbicidal Activity AMARE ([1]; rate 250 g ai/ha): 100
- Pre-emerge Herbicidal Activity ECHCG ([2]; rate 63 g ai/ha): 10
- Pre-emerge Herbicidal Activity ECHCG ([2]; rate 250 g ai/ha): 60
- Pre-emerge Herbicidal Activity SETVI ([3]; rate 63 g ai/ha): 80
- Pre-emerge Herbicidal Activity SETVI ([3]; rate 250 g ai/ha): 100
- Pre-emerge Herbicidal Activity IPOHE ([4]; rate 63 g ai/ha): 60
- Pre-emerge Herbicidal Activity IPOHE ([4]; rate 250 g ai/ha): 30
- Pre-emerge Herbicidal Activity SORHA ([5]; rate 63 g ai/ha): 10
- Pre-emerge Herbicidal Activity SORHA ([5]; rate 250 g ai/ha): 50
- Pre-emerge Herbicidal Activity CHEAL ([6]; rate 63 g ai/ha): 100
- Pre-emerge Herbicidal Activity CHEAL ([6]; rate 250 g ai/ha): 100
- Pre-emerge Herbicidal Activity DIGSA ([7]; rate 63 g ai/ha): 50
- Pre-emerge Herbicidal Activity DIGSA ([7]; rate 250 g ai/ha): 90
- Pre-emerge Herbicidal Activity CASOB ([8]; rate 63 g ai/ha): 50
- Pre-emerge Herbicidal Activity CASOB ([8]; rate 250 g ai/ha): 100
- Pre-emerge Herbicidal Activity ABUTH ([9]; rate 63 g ai/ha): 100
- Pre-emerge Herbicidal Activity ABUTH ([9]; rate 250 g ai/ha): 100
- Pre-emerge Herbicidal Activity CORN ([10]; rate 63 g ai/ha): 0
- Pre-emerge Herbicidal Activity CORN ([10]; rate 250 g ai/ha): 10
- Pre-emerge Herbicidal Activity RICE ([11]; rate 63 g ai/ha): 10
- Pre-emerge Herbicidal Activity RICE ([11]; rate 250 g ai/ha): 70
- Post-emerge Herbicidal Activity ECHCG ([12]; 63 g ai/ha): 20
- Post-emerge Herbicidal Activity ECHCG ([12]; 250 g ai/ha): 40
- Post-emerge Herbicidal Activity SETVI ([13]; 63 g ai/ha): 60
- Post-emerge Herbicidal Activity SETVI ([13]; 250 g ai/ha): 80
- Post-emerge Herbicidal Activity IPOHE ([14]; 63 g ai/ha): 100
- Post-emerge Herbicidal Activity IPOHE ([14]; 250 g ai/ha): 100
- Post-emerge Herbicidal Activity SORHA ([15]; 63 g ai/ha): 30
- Post-emerge Herbicidal Activity SORHA ([15]; 250 g ai/ha): 30
- Post-emerge Herbicidal Activity CHEAL ([16]; 63 g ai/ha): 100
- Post-emerge Herbicidal Activity CHEAL ([16]; 250 g ai/ha): 100
- Post-emerge Herbicidal Activity DIGSA ([17]; 63 g ai/ha): 10
- Post-emerge Herbicidal Activity DIGSA ([17]; 250 g ai/ha): 50
- Post-emerge Herbicidal Activity AMARE ([18]; 63 g ai/ha): 100
- Post-emerge Herbicidal Activity AMARE ([18]; 250 g ai/ha): 100
- Post-emerge Herbicidal Activity CASOB ([19]; 63 g ai/ha): 90
- Post-emerge Herbicidal Activity CASOB ([19]; 250 g ai/ha): 100
- Post-emerge Herbicidal Activity ABUTH ([20]; 63 g ai/ha): 100
- Post-emerge Herbicidal Activity ABUTH ([20]; 250 g ai/ha): 100
- Post-emerge Herbicidal Activity CORN ([21]; 63 g ai/ha): 30
- Post-emerge Herbicidal Activity CORN ([21]; 250 g ai/ha): 45
- Post-emerge Herbicidal Activity RICE ([22]; 63 g ai/ha): 30
- Post-emerge Herbicidal Activity RICE ([22]; 250 g ai/ha): 30
